# Laboratory results from patent US20250270209A1 (INTERLINE THERAPEUTICS, INC., priority 2022, published 2025).
# Tests used:
# [1] = molecular target: T1, wild type LRRK2 overexpressed in recombinant HEK-293T cells (Homo sapiens, UniProt Q5S007); assay: pS935 LRRK2 Cell Assay (HTRF, phospho-LRRK2 Ser935); assay type: cell-based; conditions: LRRK2 Inhibition, Table 8, 2 hours compound incubation
# T1 construct: host or cells: HEK293T (transient transfection with pCMV-LRRK2 WT plasmid)
# Procedure, shortened: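 HEK-293T cells transiently transfected with wild-type LRRK2 for 24 h, plated overnight, then treated 2 h at 37° C with compound (top 10 μM, 3-fold, 9 doses, duplicates, 0.2% DMSO). Lysates probed overnight at 23° C by sandwich HTRF for pSer935; 665/615 nm ratio read.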
# LRRK2 wild type enzyme = LRRK2 wild type enzyme (Homo sapiens, UniProt Q5S007); assay: Biochemical Assay: LRRK2 TR-FRET (LanthaScreen) kinase assay with LRRKtide substrate; conditions: LRRK2 Inhibition, Table 8
# Procedure, shortened: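 Human wild-type LRRK2 (3 nM) preincubated 15 min with compound (11-point, 3-fold, top 10 μM), then reacted 120 min at 23 °C with 400 nM LRRKtide and 25 μM ATP, pH 8.0. Stopped with EDTA; Tb-anti-pLRRKtide TR-FRET read after 30 min.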
# T1 sequence (Q5S007 whole entry): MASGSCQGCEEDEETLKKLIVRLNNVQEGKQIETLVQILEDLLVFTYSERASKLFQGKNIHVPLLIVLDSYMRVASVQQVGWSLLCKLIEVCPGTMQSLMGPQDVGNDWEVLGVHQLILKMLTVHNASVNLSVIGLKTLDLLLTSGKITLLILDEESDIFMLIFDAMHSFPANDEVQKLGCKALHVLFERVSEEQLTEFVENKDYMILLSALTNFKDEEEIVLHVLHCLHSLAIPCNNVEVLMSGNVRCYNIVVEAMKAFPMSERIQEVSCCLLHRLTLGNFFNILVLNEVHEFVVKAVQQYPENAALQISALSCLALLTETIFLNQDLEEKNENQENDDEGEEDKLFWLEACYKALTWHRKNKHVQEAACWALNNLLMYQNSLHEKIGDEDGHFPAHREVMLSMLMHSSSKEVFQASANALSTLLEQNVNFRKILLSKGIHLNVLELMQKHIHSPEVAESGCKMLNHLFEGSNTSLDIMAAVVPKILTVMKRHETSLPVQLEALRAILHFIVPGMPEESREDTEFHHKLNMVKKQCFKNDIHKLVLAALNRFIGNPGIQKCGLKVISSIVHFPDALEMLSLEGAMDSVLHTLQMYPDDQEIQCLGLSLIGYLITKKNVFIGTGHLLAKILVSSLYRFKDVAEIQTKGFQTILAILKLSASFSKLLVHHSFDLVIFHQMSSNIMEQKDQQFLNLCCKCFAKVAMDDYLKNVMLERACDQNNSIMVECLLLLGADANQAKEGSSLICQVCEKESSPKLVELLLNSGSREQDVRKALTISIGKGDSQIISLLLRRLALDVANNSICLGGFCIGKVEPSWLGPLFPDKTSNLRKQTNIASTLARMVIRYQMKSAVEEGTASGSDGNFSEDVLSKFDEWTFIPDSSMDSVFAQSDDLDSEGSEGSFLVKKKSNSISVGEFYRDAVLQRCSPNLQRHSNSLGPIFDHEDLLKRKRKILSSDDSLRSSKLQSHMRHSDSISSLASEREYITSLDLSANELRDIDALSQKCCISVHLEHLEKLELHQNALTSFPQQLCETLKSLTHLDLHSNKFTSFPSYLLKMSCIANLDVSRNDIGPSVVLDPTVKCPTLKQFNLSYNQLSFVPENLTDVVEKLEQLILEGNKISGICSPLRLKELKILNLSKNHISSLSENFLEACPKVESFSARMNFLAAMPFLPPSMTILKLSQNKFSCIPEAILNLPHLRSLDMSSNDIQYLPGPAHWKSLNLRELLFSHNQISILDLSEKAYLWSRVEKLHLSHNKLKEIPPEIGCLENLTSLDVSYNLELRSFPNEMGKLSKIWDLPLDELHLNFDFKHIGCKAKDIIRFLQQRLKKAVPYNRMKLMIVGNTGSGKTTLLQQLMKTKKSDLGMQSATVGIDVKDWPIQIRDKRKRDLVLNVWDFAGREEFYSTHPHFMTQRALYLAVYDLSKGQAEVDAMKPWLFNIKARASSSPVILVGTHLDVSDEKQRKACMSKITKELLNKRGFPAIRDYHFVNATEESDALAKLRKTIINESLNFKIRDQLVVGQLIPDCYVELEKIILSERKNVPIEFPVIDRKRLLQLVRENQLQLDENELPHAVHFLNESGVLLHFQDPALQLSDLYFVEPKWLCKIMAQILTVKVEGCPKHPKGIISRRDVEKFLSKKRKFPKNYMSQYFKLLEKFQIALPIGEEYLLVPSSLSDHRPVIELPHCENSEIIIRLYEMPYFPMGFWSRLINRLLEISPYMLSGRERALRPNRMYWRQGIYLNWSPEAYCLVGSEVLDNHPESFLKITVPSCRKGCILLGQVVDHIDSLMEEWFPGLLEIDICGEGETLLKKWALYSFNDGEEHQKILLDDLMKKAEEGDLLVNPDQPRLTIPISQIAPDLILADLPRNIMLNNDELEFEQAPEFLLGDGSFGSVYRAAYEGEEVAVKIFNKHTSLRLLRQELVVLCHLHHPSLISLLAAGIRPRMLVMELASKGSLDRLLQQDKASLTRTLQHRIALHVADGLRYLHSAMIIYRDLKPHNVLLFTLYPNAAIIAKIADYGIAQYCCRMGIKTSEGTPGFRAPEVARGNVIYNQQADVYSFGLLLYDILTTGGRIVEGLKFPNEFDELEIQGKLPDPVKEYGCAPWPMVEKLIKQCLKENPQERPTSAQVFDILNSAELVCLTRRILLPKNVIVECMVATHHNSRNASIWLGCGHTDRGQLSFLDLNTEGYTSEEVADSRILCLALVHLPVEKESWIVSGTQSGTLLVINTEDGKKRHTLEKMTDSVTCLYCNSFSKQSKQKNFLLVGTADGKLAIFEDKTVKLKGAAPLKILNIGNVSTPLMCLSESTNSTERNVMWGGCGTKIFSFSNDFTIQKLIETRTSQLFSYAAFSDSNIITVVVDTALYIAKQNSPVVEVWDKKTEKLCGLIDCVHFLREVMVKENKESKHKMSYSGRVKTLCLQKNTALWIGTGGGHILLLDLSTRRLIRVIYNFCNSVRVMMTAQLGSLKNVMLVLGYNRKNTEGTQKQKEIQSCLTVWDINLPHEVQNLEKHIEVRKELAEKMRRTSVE
# Chain of LRRK2 wild type enzyme (Q5S007 whole entry): as above
smiles,measurement,setting,value
"COc1ccncc1NC(=O)Cc1nc2cnc3ccc(C#N)cc3c2n1[C@@H]1CCO[C@H](C)C1 [Compound 250, N-(4-methoxy-3-pyridyl){3-[(2R,4R)-2-methyltetrahydro-2H-pyran-4-yl]-12-cyano-3,5,8-triazatricyclo[7.4.0.0^2,6]trideca-1(9),2(6),4,7,10,12-hexaen-4-yl}acetamide]",IC50,[1],6.01 nM
same,IC50,LRRK2 wild type enzyme,0.664 nM
"COc1ncncc1NC(=O)Cc1nc2cnc3ccc(C#N)cc3c2n1[C@@H]1CCO[C@H](C)C1 [Compound 251, N-(4-methoxy-5-pyrimidinyl){3-[(2R,4R)-2-methyltetrahydro-2H-pyran-4-yl]-12-cyano-3,5,8-triazatricyclo[7.4.0.0^2,6]trideca-1(9),2(6),4,7,10,12-hexaen-4-yl}acetamide]",IC50,[1],3.56 nM
same,IC50,LRRK2 wild type enzyme,0.382 nM
"C[C@@H]1C[C@H](n2c(CC(=O)NC3CC3(C)C)nc3cnc4ccc(C#N)cc4c32)CCO1 (stereo partly drawn) [Compound 252, N-2,2-dimethylcyclopropyl{3-[(2R,4R)-2-methyltetrahydro-2H-pyran-4-yl]-12-cyano-3,5,8-triazatricyclo[7.4.0.0^2,6]trideca-1,4,6,8,10,12-hexaen-4-yl}acetamide]",IC50,[1],18.1 nM
same,IC50,LRRK2 wild type enzyme,0.645 nM
"Cc1nc(C)c(NC(=O)Cc2nc3cnc4ccc(C#N)cc4c3n2[C@@H]2CCO[C@H](C)C2)c(C)n1 [Compound 253, N-(2,4,6-trimethyl-5-pyrimidinyl){3-[(2R,4R)-2-methyltetrahydro-2H-pyran-4-yl]-12-cyano-3,5,8-triazatricyclo[7.4.0.0^2,6]trideca-1,4,6,8,10,12-hexaen-4-yl}acetamide]",IC50,[1],25.8 nM
same,IC50,LRRK2 wild type enzyme,0.538 nM
"C[C@@H]1C[C@H](n2c(CC(=O)Nc3cnc(C(F)F)nc3)nc3cnc4ccc(C#N)cc4c32)CCO1 [Compound 254, N-[2-(difluoromethyl)-5-pyrimidinyl]{3-[(2R,4R)-2-methyltetrahydro-2H-pyran-4-yl]-12-cyano-3,5,8-triazatricyclo[7.4.0.0^2,6]trideca-1(9),2(6),4,7,10,12-hexaen-4-yl}acetamide]",IC50,[1],27.3 nM
same,IC50,LRRK2 wild type enzyme,0.546 nM
"COc1nc(C2CC2)ncc1NC(=O)Cc1nc2cnc3ccc(C#N)cc3c2n1[C@@H]1CCO[C@H](C)C1 [Compound 255, N-(2-cyclopropyl-4-methoxy-5-pyrimidinyl){3-[(2R,4R)-2-methyltetrahydro-2H-pyran-4-yl]-12-cyano-3,5,8-triazatricyclo[7.4.0.0^2,6]trideca-1,4,6,8,10,12-hexaen-4-yl}acetamide]",IC50,[1],3.92 nM
same,IC50,LRRK2 wild type enzyme,0.433 nM
"Cc1ccnc(C)c1NC(=O)Cc1nc2cnc3ccc(C#N)cc3c2n1[C@@H]1CCO[C@H](C)C1 [Compound 256, N-(2,4-dimethyl-3-pyridyl){3-[(2R,4R)-2-methyltetrahydro-2H-pyran-4-yl]-12-cyano-3,5,8-triazatricyclo[7.4.0.0^2,6]trideca-1,4,6,8,10,12-hexaen-4-yl}acetamide]",IC50,[1],15.1 nM
same,IC50,LRRK2 wild type enzyme,0.485 nM
"Cc1nnc(CNC(=O)Cc2nc3cnc4ccc(C#N)cc4c3n2[C@@H]2CCO[C@H](C)C2)o1 [Compound 257, N-[(5-methyl-1,3,4-oxadiazol-2-yl)methyl]{3-[(2R,4R)-2-methyltetrahydro-2H-pyran-4-yl]-12-cyano-3,5,8-triazatricyclo[7.4.0.0^2,6]trideca-1(9),2(6),4,7,10,12-hexaen-4-yl}acetamide]",IC50,[1],97 nM
same,IC50,LRRK2 wild type enzyme,0.451 nM
"Cc1cnncc1NC(=O)Cc1nc2cnc3ccc(C#N)cc3c2n1[C@@H]1CCO[C@H](C)C1 [Compound 258, N-(5-methyl-4-pyridazinyl){3-[(2R,4R)-2-methyltetrahydro-2H-pyran-4-yl]-12-cyano-3,5,8-triazatricyclo[7.4.0.0^2,6]trideca-1,4,6,8,10,12-hexaen-4-yl}acetamide]",IC50,[1],17.2 nM
same,IC50,LRRK2 wild type enzyme,0.521 nM
"Cc1nc(CNC(=O)Cc2nc3cnc4ccc(C#N)cc4c3n2[C@@H]2CCO[C@H](C)C2)no1 [Compound 259, N-[(5-methyl-1,2,4-oxadiazol-3-yl)methyl]{3-[(2R,4R)-2-methyltetrahydro-2H-pyran-4-yl]-12-cyano-3,5,8-triazatricyclo[7.4.0.0^2,6]trideca-1(9),2(6),4,7,10,12-hexaen-4-yl}acetamide]",IC50,[1],132 nM
same,IC50,LRRK2 wild type enzyme,1.34 nM
"Cc1ncnc(C)c1NC(=O)Cc1nc2cnc3ccc(C#N)cc3c2n1[C@@H]1CCO[C@H](C)C1 [Compound 260, N-(4,6-dimethyl-5-pyrimidinyl){3-[(2R,4R)-2-methyltetrahydro-2pyran-4-yl]-12-cyano-3,5,8-triazatricyclo[7.4.0.0^2,6]trideca-1,4,6,8,10,12-hexaen-4-yl}acetamide]",IC50,[1],30.4 nM
same,IC50,LRRK2 wild type enzyme,0.395 nM
"Cc1ncc(NC(=O)Cc2nc3cnc4ccc(C#N)cc4c3n2[C@@H]2CCO[C@H](C)C2)c(C)n1 [Compound 261, N-(2,4-dimethyl-5-pyrimidinyl){3-[(2R,4R)-2-methyltetrahydro-2H-pyran-4-yl]-12-cyano-3,5,8-triazatricyclo[7.4.0.0^2,6]trideca-1,4,6,8,10,12-hexaen-4-yl}acetamide]",IC50,[1],10.4 nM
same,IC50,LRRK2 wild type enzyme,0.512 nM
"CCc1ncc(NC(=O)Cc2nc3cnc4ccc(C#N)cc4c3n2[C@@H]2CCO[C@H](C)C2)cn1 [Compound 262, N-(2-ethyl-5-pyrimidinyl){3-[(2R,4R)-2-methyltetrahydro-2H-pyran-4-yl]-12-cyano-3,5,8-triazatricyclo[7.4.0.0^2,6]trideca-1,4,6,8,10,12-hexaen-4-yl}acetamide]",IC50,[1],18.2 nM
same,IC50,LRRK2 wild type enzyme,0.467 nM
"C[C@@H]1C[C@H](n2c(CC(=O)Nc3cccn(C)c3=O)nc3cnc4ccc(C#N)cc4c32)CCO1 [Compound 263, N-(1-methyl-2-oxo-1,2-dihydro-3-pyridyl){3-[(2R,4R)-2-methyltetrahydro-2H-pyran-4-yl]-12-cyano-3,5,8-triazatricyclo[7.4.0.0^2,6]trideca-1,4,6,8,10,12-hexaen-4-yl}acetamide]",IC50,[1],8.93 nM
same,IC50,LRRK2 wild type enzyme,0.476 nM
"C[C@@H]1C[C@H](n2c(CC(=O)Nc3cnn(C)c(=O)c3)nc3cnc4ccc(C#N)cc4c32)CCO1 [Compound 264, N-(1-methyl-6-oxo-1,6-dihydro-4-pyridazinyl){3-[(2R,4R)-2-methyltetrahydro-2H-pyran-4-yl]-12-cyano-3,5,8-triazatricyclo[7.4.0.0^2,6]trideca-1,4,6,8,10,12-hexaen-4-yl}acetamide]",IC50,[1],74.4 nM
same,IC50,LRRK2 wild type enzyme,0.486 nM
"C[C@@H]1C[C@H](n2c(CC(=O)NCC3(C)CC3)nc3cnc4ccc(C#N)cc4c32)CCO1 [Compound 265, N-(1-methylcyclopropyl)methyl{3-[(2R,4R)-2-methyltetrahydro-2H-pyran-4-yl]-12-cyano-3,5,8-triazatricyclo[7.4.0.0^2,6]trideca-1,4,6,8,10,12-hexaen-4-yl}acetamide]",IC50,[1],22.4 nM
same,IC50,LRRK2 wild type enzyme,0.548 nM
"COCC(C)(C)CNC(=O)Cc1nc2cnc3ccc(C#N)cc3c2n1[C@@H]1CCO[C@H](C)C1 [Compound 266, N-(3-methoxy-2,2-dimethylpropyl){3-[(2R,4R)-2-methyltetrahydro-2H-pyran-4-yl]-12-cyano-3,5,8-triazatricyclo[7.4.0.0^2,6]trideca-1,4,6,8,10,12-hexaen-4-yl}acetamide]",IC50,[1],8 nM
same,IC50,LRRK2 wild type enzyme,0.521 nM
"COCC1(CNC(=O)Cc2nc3cnc4ccc(C#N)cc4c3n2[C@@H]2CCO[C@H](C)C2)CC1 [Compound 267, N-[1-(methoxymethyl)cyclopropyl]methyl{3-[(2R,4R)-2-methyltetrahydro-2H-pyran-4-yl]-12-cyano-3,5,8-triazatricyclo[7.4.0.0^2,6]trideca-1,4,6,8,10,12-hexaen-4-yl}acetamide]",IC50,[1],7.51 nM
same,IC50,LRRK2 wild type enzyme,0.419 nM
"C[C@@H]1C[C@H](n2c(CC(=O)Nc3ccnnc3)nc3cnc4ccc(C#N)cc4c32)CCO1 [Compound 268, N-4-pyridazinyl{3-[(2R,4R)-2-methyltetrahydro-2H-pyran-4-yl]-12-cyano-3,5,8-triazatricyclo[7.4.0.0^2,6]trideca-1,4,6,8,10,12-hexaen-4-yl}acetamide]",IC50,[1],109 nM
same,IC50,LRRK2 wild type enzyme,0.461 nM
"Cc1cncc(NC(=O)Cc2nc3cnc4ccc(C#N)cc4c3n2[C@@H]2CCO[C@H](C)C2)c1 [Compound 269, N-(5-methyl-3-pyridyl){3-[(2R,4R)-2-methyltetrahydro-2H-pyran-4-yl]-12-cyano-3,5,8-triazatricyclo[7.4.0.0^2,6]trideca-1,4,6,8,10,12-hexaen-4-yl}acetamide]",IC50,[1],5.17 nM
same,IC50,LRRK2 wild type enzyme,0.379 nM
"Cc1ccc(NC(=O)Cc2nc3cnc4ccc(C#N)cc4c3n2[C@@H]2CCO[C@H](C)C2)c(C)n1 [Compound 270, N-(2,6-dimethyl-3-pyridyl){3-[(2R,4R)-2-methyltetrahydro-2H-pyran-4-yl]-12-cyano-3,5,8-triazatricyclo[7.4.0.0^2,6]trideca-1,4,6,8,10,12-hexaen-4-yl}acetamide]",IC50,[1],7.36 nM
same,IC50,LRRK2 wild type enzyme,0.504 nM
"C[C@@H]1C[C@H](n2c(CC(=O)Nc3cnccc3C#N)nc3cnc4ccc(C#N)cc4c32)CCO1 [Compound 271, N-(4-cyano-3-pyridyl){3-[(2R,4R)-2-methyltetrahydro-2H-pyran-4-yl]-12-cyano-3,5,8-triazatricyclo[7.4.0.0^2,6]trideca-1,4,6,8,10,12-hexaen-4-yl}acetamide]",IC50,[1],8.43 nM
same,IC50,LRRK2 wild type enzyme,0.643 nM
"C[C@@H]1C[C@H](n2c(CC(=O)Nc3cccnc3C#N)nc3cnc4ccc(C#N)cc4c32)CCO1 [Compound 272, N-(2-cyano-3-pyridyl){3-[(2R,4R)-2-methyltetrahydro-2H-pyran-4-yl]-12-cyano-3,5,8-triazatricyclo[7.4.0.0^2,6]trideca-1,4,6,8,10,12-hexaen-4-yl}acetamide]",IC50,[1],12.5 nM
same,IC50,LRRK2 wild type enzyme,0.549 nM
